Patent publication US9145375B2, “Quinazolinone compounds” (PRANA BIOTECHNOLOGY LIMITED, priority 2008, dated 2015)
Like-named read-outs stand apart in the source and are kept apart here.

Experiments:
[1] = Metabolism in hepatocytes (predicted EH), rat; format: in vitro ADME
Mouse Plasma Conc. = format: in vivo; conditions: given as 'Up to'
PK Studies in the Rat = format: in vivo; conditions: for Cmax / Tmax / half-life / AUC(0-t): plasma; for AUC(0-t): read-out: AUC0-24 h (converted)
Procedure: Assay 5. Pharmacokinetic Profile
The pharmacokinetic profile of test compounds is determined by the following assay: • Intravenous infusion of test compound; 2 mg/Kg in a suitable vehicle is […]; […] up to 24 hours. • Plasma concentrations of test compound are determined by suitable analytical method.
(§1) [formula] [formula] [formula] • CLtotal=total plasma clearance after IV administration • Vdβ=volume of distribution during the elimination phase after IV administration • BA=oral bioavailability • AUCIV=area under the plasma concentration versus time profile from time zero to infinity after IV administration • AUCoral=area under the plasma concentration versus time profile from time zero to infinity after oral administration • β=terminal elimination rate constant after IV administration Assay 6. Blood Brain Barrier Penetration

[2] = Metabolism in hepatocytes (predicted EH), human; format: in vitro ADME
CYP2C19 = molecular target: T1, CYP2C19 (Homo sapiens, UniProt P33261); test: CYP450 inhibition, specific substrate approach in human liver microsomes: CYP2C19; format: in vitro ADME
T1 construct: using a specific substrate approach in human liver microsomes; from tissue; host or cells: human liver microsomes
Procedure: (§2) CYP450 Isoform Inhibition Using a Specific Substrate Approach
(§3) The present study is a “Tier 2” screen to assess potential enzyme inhibition at a test compound concentration of 20 μM using a specific substrate approach in human liver microsomes.
(§4) The substrate specific enzyme inhibition study relies on the formation of a metabolite that is mediated by a specific CYP450 isoform using human liver microsomes. In the current study, the following reactions were monitored to assess interactions with specific CYP450 isoforms. A known inhibitor of each isoform was included in each assay as a positive control. The following IC50 values have been reported in the literature using equivalent assay conditions for each CYP450 isoform:
(§5) The reaction was initiated by the addition of an NADPH-regenerating system and was quenched by the addition of acetonitrile prior to determining the concentration (and apparent rate of formation) of the specific metabolite by LC/MS.
(§6) The IC50 was deemed to be the concentration at which there was a 50% reduction in the amount of metabolite formed, relative to the maximal extent of formation.

[3] = Blood Brain Barrier Penetration (brain to plasma ratio); format: in vivo; conditions: male, Swiss Outbred, mouse, brain and plasma; for Kp at 5 min / Kp at 1 h: 150 μg/mouse, IV, read-out: Brain to Plasma Ratio (IV) (B:P); for Kp at 1 h: at 60 min; for Kp at 0.5 h / Kp at 4 h: Oral dosing, read-out: Brain to Plasma Ratio (B:P); for Kp at 0.5 h: at 30 min; for Kp at 4 h: at 240 min
Description: as §1
A bolus injection of each of the test compound (50 μL of a 3 mg/mL aqueous solution containing 40% propylene glycol and 10% ethanol) was administered by tail vein injection to male Swiss Outbred mice (5-7 weeks of age). Alternatively, test compound was orally administered to mice according to standard procedures known to the skilled person.
[…] Mice were anaesthetised approximately 3-4 min prior to blood and brain harvest with an intraperitoneal injection of ketamine and xylazine (133 mg/kg and 10 mg/kg, respectively). The whole brain was placed into pre-weighed polypropylene vials and stored at −20° C. until analysis. On the day of analysis, the whole brain was homogenised in 3 parts of water (on ice to reduce the potential for ex vivo brain degradation) and an aliquot of the brain homogenate and plasma was analysed for compound concentration by LCMS. Standards were prepared by spiking blank brain homogenate and both samples and standards were processed by adding acetonitrile to the tissue homogenate, centrifuging and injecting an aliquot of the supernatant onto the LCMS.
To ensure complete recovery of compound from the brain, brain homogenate was spiked with compound (in 50% acetonitrile:50% water) to a nominal concentration of 500 ng/mL. The concentration of compound in the supernatant was then determined by LCMS and compared to the supernatant concentration when compound was added following precipitation with acetonitrile.
[formula] [formula] [formula] [formula] • Cbrain=concentration of compound in brain parenchyma (ng/g) • Cbrain homogenate=concentration of compound in brain homogenate (ng/g) • Cbrain vasculature=concentration of compound in brain vasculature (ng/g) • CPlasma=concentration of compound in plasma (ng/mL) • VP=brain plasma volume (26 μL/g for male Swiss Outbred mice) • B:P=brain-to-plasma ratio • Papp=apparent permeability coefficient of compound permeating the blood-brain barrier • ∫0^tcplasmadt=concentration of compound in plasma from time zero to 5 min post-dose (equivalent to the 5 min post-dose plasma concentration, assuming no back diffusion from brain to plasma within this time period) • A=surface area of capillaries forming the blood-brain barrier (240 cm^2/g brain weight for mouse) Assay 7 In Vitro Metabolism in Human Liver Microsomes

CYP1A2 = molecular target: T2, CYP1A2 (Homo sapiens, UniProt P05177); test: CYP450 inhibition, specific substrate approach in human liver microsomes: CYP1A2; format: in vitro ADME
T2 construct: using a specific substrate approach in human liver microsomes; from tissue; host or cells: human liver microsomes
T2 sequence (P05177 1-516): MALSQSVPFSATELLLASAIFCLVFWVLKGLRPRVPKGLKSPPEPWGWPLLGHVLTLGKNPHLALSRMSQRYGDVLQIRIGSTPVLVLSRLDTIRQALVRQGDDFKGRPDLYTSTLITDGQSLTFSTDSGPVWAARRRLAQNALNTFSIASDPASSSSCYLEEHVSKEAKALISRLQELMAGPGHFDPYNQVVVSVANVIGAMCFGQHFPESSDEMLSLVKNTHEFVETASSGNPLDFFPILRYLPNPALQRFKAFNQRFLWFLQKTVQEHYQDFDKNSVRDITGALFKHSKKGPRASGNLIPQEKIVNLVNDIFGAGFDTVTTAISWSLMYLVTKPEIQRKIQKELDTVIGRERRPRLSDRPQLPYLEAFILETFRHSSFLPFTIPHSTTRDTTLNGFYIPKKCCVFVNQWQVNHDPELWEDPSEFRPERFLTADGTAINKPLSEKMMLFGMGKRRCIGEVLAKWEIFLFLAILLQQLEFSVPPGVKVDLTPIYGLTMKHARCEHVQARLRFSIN
Procedure: as §2, §3, §4, §5, §6

Fe-DA = test: H2O2 assay, Fe-DA (% cf. Fe 0.4 μM/DA 50 μM); format: biochemical; conditions: Fe 0.4 μM/DA 50 μM
Procedure: This fluoresence assay evaluates the ability of a test compound to inhibit the generation of hydrogen peroxide (H2O2) by iron in the presence of a reducing substrate such as ascorbic acid. In the assay, iron in the form of FeCl3 or copper is allowed to react with ascorbic acid by incubating for 1 hr at 37° C. in the presence of the fluorescing compound DCF and horseradish peroxidase. H2O2 generated by the system is assessed by measuring the specific fluorescence profile at the excitation and emission wavelengths of 485 and 530 nm respectively, in the presence of increasing concentrations of test compound. Test compounds are ranked according to their capacity to inhibit H2O2 generated by the system where lower values reflect greater ability to inhibit H2O2 production.

T1 sequence (P33261 whole entry): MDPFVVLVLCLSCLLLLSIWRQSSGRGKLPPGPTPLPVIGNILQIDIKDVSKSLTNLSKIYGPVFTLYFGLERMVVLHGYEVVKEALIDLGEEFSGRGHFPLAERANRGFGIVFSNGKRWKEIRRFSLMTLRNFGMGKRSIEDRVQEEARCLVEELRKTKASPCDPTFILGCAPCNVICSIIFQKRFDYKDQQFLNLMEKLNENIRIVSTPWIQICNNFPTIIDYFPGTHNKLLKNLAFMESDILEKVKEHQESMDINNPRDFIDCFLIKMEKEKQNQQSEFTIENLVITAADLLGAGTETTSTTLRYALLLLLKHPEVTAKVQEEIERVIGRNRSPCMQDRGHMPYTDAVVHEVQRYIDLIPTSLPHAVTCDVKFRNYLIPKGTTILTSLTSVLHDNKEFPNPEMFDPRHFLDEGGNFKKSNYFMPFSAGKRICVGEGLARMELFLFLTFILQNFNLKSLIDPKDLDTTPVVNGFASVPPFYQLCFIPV

| Compound | Metabolism (Predicted EH), Hepatocytes: Rat [1] | Mouse Plasma Conc. (Mouse Plasma Conc.) | Metabolism (Predicted EH), Hepatocytes: Human [2] | IC50 (CYP2C19) | Kp at 5 min [3] | Kp at 1 h [3] | IC50 (CYP1A2) | % dose in urine (PK Studies in the Rat; oral 20 mg/Kg) | l24 (PK Studies in the Rat; oral 20 mg/Kg) | Cmax (PK Studies in the Rat; oral 20 mg/Kg) | Tmax (PK Studies in the Rat; oral 20 mg/Kg) | half-life (PK Studies in the Rat; oral 20 mg/Kg) | AUC(0-t) (PK Studies in the Rat; oral 20 mg/Kg) | Kp at 0.5 h [3] | Kp at 4 h [3] | Fe-DA % cf. Fe 0.4 μM/DA 50 μM (Fe-DA) | also measured |
| --- | --- | --- | --- | --- | --- | --- | --- | --- | --- | --- | --- | --- | --- | --- | --- | --- | --- |
| CNCc1nc2c(O)c(Cl)cc(Cl)c2c(=O)n1C [Compound F4161] | Rat = 0.29 | ≤ 510.4 ng/mL | 0.20 | – | – | – | – | – | – | – | – | – | – | – | – | – | Cmax (PK Studies in the Rat; route and dose not given): 6.7 µM; Tmax (PK Studies in the Rat; route and dose not given): 0.25 h; half-life (PK Studies in the Rat; route and dose not given): 6.7 h; AUC(0-t) (PK Studies in the Rat; route and dose not given): 14.1 µM·h; % dose in urine (PK Studies in the Rat; route and dose not given): urine = 0.1%; l24 (PK Studies in the Rat; route and dose not given): l24 = 0.045-0.15 μM |
| CN(C)Cc1nc2c(O)c(Cl)cc(Cl)c2c(=O)n1CC1CC1 [Compound F4267] | Rat = 0.45 | ≤ 1166.6 ng/mL | 0.44 | > 30 µM | 3.46 | 2.02 | 15.3 µM | – | – | – | – | – | – | – | – | – | l24 (PK Studies in the Rat; oral 30 mg/Kg): l24 = 0.25-0.5 uM; half-life (PK Studies in the Rat; oral 30 mg/Kg): 4.9 h |
| CCn1c(CN(C)C)nc2c(O)c(Cl)cc(Cl)c2c1=O.Cl [Compound F4268] | Rat = 0.30 | ≤ 975.9 ng/mL | 0.28 | > 20 µM | 2.96 | 2.63 | ~20 µM | – | – | – | – | – | – | – | – | – | % dose in urine (PK Studies in the Rat; oral 30 mg/Kg): 0.1% dose; Rel. Exposure (PK Studies in the Rat; oral 30 mg/Kg): 51.9%; l24 (PK Studies in the Rat; oral 30 mg/Kg): l24 = 0.02-0.05 uM; Cmax (PK Studies in the Rat; oral 30 mg/Kg): 10 µM; Tmax (PK Studies in the Rat; oral 30 mg/Kg): 0.333 h; half-life (PK Studies in the Rat; oral 30 mg/Kg): 4.3 h |
| CN(C)Cc1nc2c(O)c(Cl)cc(Cl)c2c(=O)n1C [Compound F4269, 5,7-Dichloro-2-(dimethylamino)methyl-8-hydroxy-3-methylquinazolin-4(3H)-one] | Rat = 0.35 | ≤ 492.1 ng/mL | 0.38 | > 30 µM | 2.96 | 2.12 | 24.1 µM | 0.1% dose | l24 = 0.01-0.03 uM | 3.3 µM | 0.375 h | 5.6 h | 5.5 µM·h | – | – | – | – |
| CCN(CC)Cc1nc2c(O)c(Cl)cc(Cl)c2c(=O)n1CC1CC1 [Compound F4385] | Rat = 0.35 | ≤ 9074 ng/mL | 0.55 | > 30 µM | – | – | 13.4 µM | 0.05% dose | l24 = 0.5-1.5 u uM | 7.3 µM | 0.5 h | 14.7 h | 52.1 µM·h | 0.31 | 0.42 | 86% | – |
| C#CCN(C)Cc1nc2c(O)c(Cl)cc(Cl)c2c(=O)n1CC1CC1 [Compound F4387] | – | ≤ 942.7 ng/mL | – | – | 0.65 | 0.29 | – | – | – | – | – | – | – | – | – | 77% | – |
| Br.CCn1c(CNC)nc2c(O)c(Cl)cc(Cl)c2c1=O [Compound F4486] | – | ≤ 1115 ng/mL | – | – | – | – | – | – | – | – | – | – | – | 0.23 | 0.22 | 56% | – |
| CCNCc1nc2c(O)c(Cl)cc(Cl)c2c(=O)n1CC [Compound F4495] | Rat = 0.35 | ≤ 8935 ng/mL | 0.22 | > 30 µM | – | – | 13.7 µM | 0.18% dose | l24 = 0.05-0.3 uM | 56.7 µM | 0.5 h | 4.1 h | 87 µM·h | 0.65 | 0.64 | 45% | – |
| Br.CCNCc1nc2c(O)c(Cl)cc(Cl)c2c(=O)n1C [Compound F4496] | Rat = 0.35 | ≤ 3330.8 ng/mL | 0.43 | > 30 µM | – | – | 22 µM | 0.19% dose | l24= 0.02-0.1 uM | 7.61 µM | 0.75 h | 6.1 h | 17.8 µM·h | 1.42 | 1.97 | 45% | – |
